Laboratory results as given in ChEMBL document CHEMBL6096641, “Discovery of the synergy between sulindac and NO expands the application of NSAIDs in cardiac complications” (Bioorg Med Chem, 2024).
The source made the active and inactive calls. The calls are words filed in the database; no cut-off is given here.

How the values were obtained:
H9c2 [1] = assay: Induction of NO release ratio in rat H9c2 cells under hypoxia condition by Griess reagent based microplate reader analysis relative to control; format: functional; design: concentration or dose not given beside the values
H9c2 [2] = assay: Downregulation of ACE protein expression in rat H9c2 cells at 1 uM under hypoxia by Western blotting analysis; format: functional, cell-based
[3] = Induction of H2S release by absorbance based analysis; format: functional
H9c2 [4] = assay: Induction of NO release in rat H9c2 cells under hypoxia condition at 1 to 50 uM incubated for 4 hrs by Griess reagent based microplate reader analysis; format: functional, cell-based; conditions: dose 1-50 µM
[5] = Toxicity in male Wistar rat assessed as growth curve at 10 mg/kg administered once a day for 3 days and measured after 6 days; format: organism-based; conditions: in vivo, 72 h, time 3 day
Rattus norvegicus [6] = assay: Cardioprotective activity against LPS and talc powder induced pericarditis male Wistar rat assessed as improvement in pericardium thickening at 10 mg/kg administered for 3 days; format: functional, organism-based; conditions: time 3.0 day
Rattus norvegicus [7] = assay: Cardioprotective activity against LPS and talc powder induced pericarditis male Wistar rat assessed as improvement in cardiac swelling at 10 mg/kg administered for 3 days; format: functional, organism-based; conditions: time 3.0 day
H9c2 [8] = assay: Upregulation of HO-1 expression in rat H9c2 cells at 1 uM under hypoxia by Western blotting analysis; format: functional, cell-based
H9c2 [9] = assay: Upregulation of VEFG protein expression level in rat H9c2 cells at 1 uM under hypoxia by Western blotting analysis; format: functional, cell-based
[10] = molecular target: T1, Prostaglandin G/H synthase 2 (Homo sapiens, UniProt P35354); assay: Inhibition of COX-2 (unknown origin)
T1 sequence (P35354 whole entry): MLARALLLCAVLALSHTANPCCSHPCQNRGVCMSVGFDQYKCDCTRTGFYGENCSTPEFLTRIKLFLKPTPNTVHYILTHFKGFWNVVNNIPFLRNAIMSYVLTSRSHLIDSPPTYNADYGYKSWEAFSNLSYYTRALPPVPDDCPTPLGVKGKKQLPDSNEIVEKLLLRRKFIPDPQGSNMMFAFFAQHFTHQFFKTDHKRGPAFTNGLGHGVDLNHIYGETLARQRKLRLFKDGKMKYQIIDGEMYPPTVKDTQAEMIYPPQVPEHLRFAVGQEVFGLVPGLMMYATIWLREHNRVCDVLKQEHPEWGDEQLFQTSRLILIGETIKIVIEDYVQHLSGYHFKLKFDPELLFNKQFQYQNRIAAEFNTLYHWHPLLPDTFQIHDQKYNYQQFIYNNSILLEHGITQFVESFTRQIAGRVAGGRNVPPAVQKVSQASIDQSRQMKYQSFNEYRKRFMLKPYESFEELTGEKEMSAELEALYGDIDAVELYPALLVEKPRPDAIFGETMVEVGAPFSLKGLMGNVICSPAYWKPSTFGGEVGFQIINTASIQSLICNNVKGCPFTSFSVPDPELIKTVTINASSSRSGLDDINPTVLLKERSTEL

Work on `CC1=C(CC(=O)Oc2ccc(N(C)N=O)cc2)c2cc(F)ccc2/C1=C\c1ccc([S+](C)[O-])cc1` (configuration not stated) yielded an Activity (H9c2 [1]) of 32.56%.
In the case of `CC(C(=O)Oc1ccc(N(C)N=O)cc1)c1cccc(C(=O)c2ccccc2)c1` (configuration not stated), the Activity (H9c2 [1]) is reported as 2.23%.
`COc1ccc2c(c1)c(CC(=O)Oc1ccc(N(C)N=O)cc1)c(C)n2C(=O)c1ccc(Cl)cc1` gave an Activity (H9c2 [1]) of 32.85%.
In the case of `CC1=C(CC(=O)O)c2cc(F)ccc2/C1=C\c1ccc([S+](C)[O-])cc1` (configuration not stated) [SULINDAC], the Activity (H9c2 [2]) is reported as “Active”, the Activity [3] is reported as 29.5 µg/L and the Activity (H9c2 [4]) is reported as “inactive”. For the same molecule, the Activity [5] was “Non-toxic”, the Activity (Rattus norvegicus [6]) was “Active” and the Activity (Rattus norvegicus [7]) was “Active”. The Activity (H9c2 [8]) was “Active” and the Activity (H9c2 [9]) was “inactive”.
In the case of `CC(C(=O)Oc1ccc(N(C)N=O)cc1)c1cccc(Oc2ccccc2)c1` (configuration not stated), the Activity (H9c2 [1]) is reported as 1.12%.
Molecule `CC(C)Cc1ccc(C(C)C(=O)Oc2ccc(N(C)N=O)cc2)cc1` (configuration not stated) has an IC50 [10] of 451 µM and an Activity (H9c2 [1]) of 12.11%.
Molecule `COc1ccc2cc(C(C)C(=O)Oc3ccc(N(C)N=O)cc3)ccc2c1` (single isomer, unassigned) has an Activity (H9c2 [1]) of 44.95%.
`Cc1cccc(Nc2ccccc2C(=O)Oc2ccc(N(C)N=O)cc2)c1C` showed an Activity (H9c2 [1]) of 34.55%.
For `CCc1cccc2c3c([nH]c12)C(CC)(CC(=O)Oc1ccc(N(C)N=O)cc1)OCC3` (configuration not stated), the Activity (H9c2 [1]) was 1.01%.
